# Key:
# P. aeruginosa MPAO1-P1 = test: Antibiotic resistance of P1 strain; type: cell-based; conditions: Pseudomonas aeruginosa, MPAO1P1
# P. aeruginosa MPAO1-P2 = test: Antibiotic resistance of P2 strain; type: cell-based, Pseudomonas aeruginosa; conditions: for fold higher resistance of P2 strain compared to P1 strain: P2 vs P1
# Protocol: FIG. 11. Chloramphenicol resistance of P1 and P2 strains. Strains were cultured in TSB containing 250 μg/ml chloramphenicol and grown in 96-well plate (150 μl/well, shaking at 150 rpm, 37° C. Cell density was measured on Plate Reader at OD 600 nm. Values represent the mean of triplicate cultures.
SMILES,MIC (P. aeruginosa MPAO1-P1),fold higher resistance of P2 strain compared to P1 strain (P. aeruginosa MPAO1-P2),"MIC (P. aeruginosa MPAO1-P2; Pseudomonas aeruginosa, MPAO1P2, P2 strain)"
CCn1cc(C(=O)O)c(=O)c2cc(F)c(N3CCNCC3)cc21 [norfloxacin],0.38 µg/mL,10 fold,3.8 µg/mL
O=C(N[C@H](CO)[C@H](O)c1ccc([N+](=O)[O-])cc1)C(Cl)Cl [chloramphenicol],–,about 6 fold,–

# — patent publication US9937199B2, “Materials and methods for preventing and treating anastomotic leaks” (THE UNIVERSITY OF CHICAGO, priority 2012, dated 2018)
